Source: patent publication US20100129465A1, “Methods and Compositions Related to Acne Treatment” (priority 2008, published 2010)

Test system: skin and eyes
Conditions: aqueous solution, pH=3.0

In the case of `O=C(O)CO` [glycolic acid], the “sting or burning when applied to freshly shaven skin” value is reported as “stings or burns”.
